Test results reported in patent US10189845B2, “4,6-substituted-pyrazolo[1,5-a]pyrazines as janus kinase inhibitors” (ARRAY BIOPHARMA INC., priority 2014, dated 2019).
Where two headings read alike, the source gives them in different places.

Legend:
Format in all cases: biochemical
JAK3 = JAK3 (Homo sapiens (Human), UniProt P52333); assay: JAK3 Inhibition Assay (Example D, Omnia kinase fluorescence peptide substrate assay)
How it was run: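 Omnia Sox-peptide kinetic read (ex 360 nm, em 485 nm, every 50 s over 45 min) tracked phosphorylation of 10 μM Y7 peptide by 2 nM recombinant JAK3 at 1 mM ATP. Buffer: 25 mM HEPES pH 7.4, 10 mM MgCl2, 0.01% Triton X-100, 1 mM DTT, with 2% DMSO final.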

JAK2 = JAK2 (Homo sapiens (Human), UniProt O60674); assay: JAK2 Inhibition Assay (Example C, Omnia kinase fluorescence peptide substrate assay); conditions: JAK2 Enzyme IC50 1 mM ATP, averaged IC50 ranges
How it was run: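 Kinetic fluorescence read of Omnia Y7 peptide (10 μM) phosphorylation, ex 360/em 485 nm every 50 s over 45 min, by 4 nM JAK2 at 1 mM ATP. Buffer 25 mM HEPES pH 7.4, 10 mM MgCl2, 0.01% Triton X-100, 1 mM DTT; final DMSO 2%. Percent-of-control values fitted by 4-parameter logistic for IC50.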

Human Tyk2 kinase domain = Human Tyk2 kinase domain (Homo sapiens (Human), UniProt P29597); assay: Tyk2 Inhibition Assay (Example A, Omnia kinase fluorescence peptide substrate assay); conditions: TYK2 Enzyme IC50 1 mM ATP, averaged IC50 ranges
How it was run: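 IC50 values come from a 4-parameter logistic fit of percent-of-control data, with compounds at 2% final DMSO. Reactions held 1 nM His-tag-cleaved Tyk2 (aa 886–1187), 8 μM Omnia Y12 peptide and 1 mM ATP in pH 7.4 HEPES buffer with 10 mM MgCl2, Triton X-100 and DTT. Sox fluorescence (360/485 nm) was monitored kinetically over 45 min.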

JAK1 = JAK1 (Homo sapiens (Human), UniProt P23458); assay: JAK1 Inhibition Assay (Example B, Omnia kinase fluorescence peptide substrate assay)
How it was run: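 Kinetic fluorescence read (360 nm excitation, 485 nm emission, every 50 s over 45 min) of Omnia Y12 peptide (8 μM) phosphorylation by 12.5 nM human JAK1 at 1 mM ATP. Buffer: HEPES pH 7.4, MgCl2, Triton X-100, DTT; 2% DMSO. IC50 = concentration giving 50 POC on logistic curve.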

[1] = JAK1 Enzyme IC50 1 mM ATP, 1 mM ATP, averaged IC50 ranges

Sequence of JAK1 (P23458 whole entry): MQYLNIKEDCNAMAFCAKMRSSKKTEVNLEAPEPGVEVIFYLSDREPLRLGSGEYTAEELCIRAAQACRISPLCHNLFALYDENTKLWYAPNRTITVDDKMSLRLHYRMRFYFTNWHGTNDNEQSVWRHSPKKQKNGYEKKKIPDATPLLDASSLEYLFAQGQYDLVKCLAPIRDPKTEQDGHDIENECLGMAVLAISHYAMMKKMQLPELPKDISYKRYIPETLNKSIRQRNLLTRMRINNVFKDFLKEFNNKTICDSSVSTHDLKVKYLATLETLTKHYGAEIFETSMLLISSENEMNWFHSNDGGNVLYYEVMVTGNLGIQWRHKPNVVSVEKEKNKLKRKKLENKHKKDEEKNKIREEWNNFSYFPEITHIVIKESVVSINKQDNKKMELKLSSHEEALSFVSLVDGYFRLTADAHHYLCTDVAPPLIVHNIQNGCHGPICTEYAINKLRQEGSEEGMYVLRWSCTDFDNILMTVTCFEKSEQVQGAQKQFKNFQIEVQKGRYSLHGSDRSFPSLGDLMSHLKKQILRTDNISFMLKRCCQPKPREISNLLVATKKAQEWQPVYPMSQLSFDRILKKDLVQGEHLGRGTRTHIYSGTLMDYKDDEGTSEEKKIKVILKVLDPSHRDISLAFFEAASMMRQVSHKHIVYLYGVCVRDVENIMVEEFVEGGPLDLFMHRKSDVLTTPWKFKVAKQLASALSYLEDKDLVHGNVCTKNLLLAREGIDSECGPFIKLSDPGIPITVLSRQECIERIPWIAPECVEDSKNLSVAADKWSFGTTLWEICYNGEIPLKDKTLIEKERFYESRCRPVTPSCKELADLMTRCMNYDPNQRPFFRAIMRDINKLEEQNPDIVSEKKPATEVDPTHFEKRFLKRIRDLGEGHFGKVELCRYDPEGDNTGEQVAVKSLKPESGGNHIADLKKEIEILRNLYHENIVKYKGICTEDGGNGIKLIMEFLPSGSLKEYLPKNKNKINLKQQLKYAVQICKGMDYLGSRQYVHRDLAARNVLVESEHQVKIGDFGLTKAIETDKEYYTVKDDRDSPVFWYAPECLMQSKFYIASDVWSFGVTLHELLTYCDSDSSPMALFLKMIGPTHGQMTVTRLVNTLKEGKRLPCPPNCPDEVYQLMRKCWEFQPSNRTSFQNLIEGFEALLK
Sequence of Human Tyk2 kinase domain (P29597 886-1187): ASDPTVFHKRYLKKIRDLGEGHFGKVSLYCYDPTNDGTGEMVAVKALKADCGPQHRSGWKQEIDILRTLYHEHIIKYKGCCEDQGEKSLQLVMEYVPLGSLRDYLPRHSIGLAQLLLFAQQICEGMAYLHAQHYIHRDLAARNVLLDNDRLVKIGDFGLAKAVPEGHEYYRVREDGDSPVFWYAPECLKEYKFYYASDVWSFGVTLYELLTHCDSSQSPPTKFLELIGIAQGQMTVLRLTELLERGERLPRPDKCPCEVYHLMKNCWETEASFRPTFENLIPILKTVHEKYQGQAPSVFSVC
Sequence of JAK2 (O60674 whole entry): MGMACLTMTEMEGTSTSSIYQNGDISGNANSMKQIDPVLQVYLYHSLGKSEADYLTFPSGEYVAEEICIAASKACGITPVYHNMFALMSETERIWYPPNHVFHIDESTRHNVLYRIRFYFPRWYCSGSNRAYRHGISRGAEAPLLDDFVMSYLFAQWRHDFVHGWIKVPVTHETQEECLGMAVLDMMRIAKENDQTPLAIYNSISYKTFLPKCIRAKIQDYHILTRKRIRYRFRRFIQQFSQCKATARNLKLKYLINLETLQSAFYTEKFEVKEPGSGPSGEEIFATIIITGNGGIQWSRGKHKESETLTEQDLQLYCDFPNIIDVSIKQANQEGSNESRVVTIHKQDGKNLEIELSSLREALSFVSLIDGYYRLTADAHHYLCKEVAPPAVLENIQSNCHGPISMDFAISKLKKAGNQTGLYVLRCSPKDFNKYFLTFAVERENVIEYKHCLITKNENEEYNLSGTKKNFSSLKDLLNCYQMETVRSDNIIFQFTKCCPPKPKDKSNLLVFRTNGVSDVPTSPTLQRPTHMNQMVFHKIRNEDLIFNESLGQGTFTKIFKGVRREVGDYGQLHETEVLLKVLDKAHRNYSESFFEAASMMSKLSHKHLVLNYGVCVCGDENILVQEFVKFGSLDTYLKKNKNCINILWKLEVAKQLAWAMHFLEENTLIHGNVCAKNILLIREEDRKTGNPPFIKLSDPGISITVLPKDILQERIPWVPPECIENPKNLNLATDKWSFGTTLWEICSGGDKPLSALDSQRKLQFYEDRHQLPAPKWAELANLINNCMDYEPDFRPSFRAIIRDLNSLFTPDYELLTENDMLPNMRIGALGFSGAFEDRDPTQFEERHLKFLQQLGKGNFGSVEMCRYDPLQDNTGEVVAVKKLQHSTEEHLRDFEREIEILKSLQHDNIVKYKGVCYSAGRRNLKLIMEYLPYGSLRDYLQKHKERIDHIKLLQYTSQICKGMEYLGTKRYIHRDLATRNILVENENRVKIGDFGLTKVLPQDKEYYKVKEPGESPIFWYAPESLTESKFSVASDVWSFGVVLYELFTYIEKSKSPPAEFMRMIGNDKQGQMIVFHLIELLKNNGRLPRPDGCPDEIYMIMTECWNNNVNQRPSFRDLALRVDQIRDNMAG
Sequence of JAK3 (P52333 whole entry): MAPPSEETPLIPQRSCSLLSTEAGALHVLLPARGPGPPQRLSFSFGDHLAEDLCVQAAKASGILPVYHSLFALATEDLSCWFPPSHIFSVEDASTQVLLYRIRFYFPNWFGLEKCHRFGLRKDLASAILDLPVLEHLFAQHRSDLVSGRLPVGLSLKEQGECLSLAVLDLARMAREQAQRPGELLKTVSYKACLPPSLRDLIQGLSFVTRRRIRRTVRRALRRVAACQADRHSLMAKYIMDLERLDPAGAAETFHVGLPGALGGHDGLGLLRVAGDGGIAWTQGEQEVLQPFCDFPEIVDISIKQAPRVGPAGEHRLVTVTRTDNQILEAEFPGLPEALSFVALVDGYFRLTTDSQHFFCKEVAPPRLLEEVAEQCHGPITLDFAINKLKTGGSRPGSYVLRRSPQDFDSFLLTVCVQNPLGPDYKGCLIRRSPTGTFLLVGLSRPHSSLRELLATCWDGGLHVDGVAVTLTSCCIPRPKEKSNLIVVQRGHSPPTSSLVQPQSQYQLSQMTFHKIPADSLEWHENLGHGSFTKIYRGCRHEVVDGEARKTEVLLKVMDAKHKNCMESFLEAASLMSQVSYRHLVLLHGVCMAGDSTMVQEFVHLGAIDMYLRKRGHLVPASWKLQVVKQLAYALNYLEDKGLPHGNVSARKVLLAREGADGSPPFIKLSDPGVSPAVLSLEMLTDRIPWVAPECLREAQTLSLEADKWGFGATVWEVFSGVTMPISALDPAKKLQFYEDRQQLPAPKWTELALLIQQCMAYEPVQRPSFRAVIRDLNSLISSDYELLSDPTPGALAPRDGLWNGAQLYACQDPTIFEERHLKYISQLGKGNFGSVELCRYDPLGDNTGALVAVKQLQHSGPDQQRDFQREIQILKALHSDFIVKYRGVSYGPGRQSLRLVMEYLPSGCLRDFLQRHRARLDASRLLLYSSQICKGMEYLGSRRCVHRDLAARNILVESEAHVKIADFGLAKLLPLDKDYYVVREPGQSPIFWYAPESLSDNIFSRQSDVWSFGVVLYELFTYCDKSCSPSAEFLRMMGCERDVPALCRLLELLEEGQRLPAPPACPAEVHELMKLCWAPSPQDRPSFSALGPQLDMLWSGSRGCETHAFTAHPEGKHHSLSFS

| IC50 (JAK3) | IC50 (JAK2) | IC50 (Human Tyk2 kinase domain) | IC50 (JAK1) | IC50 (JAK1; [1]) | Compound |
| --- | --- | --- | --- | --- | --- |
| 1000 to 10000 nM | 10 to 100 nM | 10 to 100 nM | 100 to 1000 nM | – | CCC(CC)n1cc(-c2nc(-c3cnn(C4CN(C(=O)CNC)C4)c3)cn3nccc23)cn1 [Example 187, 2-(methylamino)-1-(3-(4-(4-(1-(pentan-3-yl)-1H-pyrazol-4-yl)pyrazolo[1,5-a]pyrazin-6-yl)-1H-pyrazol-1-yl)azetidin-1-yl)ethanone bis(2,2,2-trifluoroacetate)] |
| 1000 to 10000 nM | 10 to 100 nM | 10 to 100 nM | – | 100 to 1000 nM | CCC(CC)n1cc(-c2nc(-c3cnn(C4CN(C(=O)CN5CCCC5)C4)c3)cn3nccc23)cn1 [Example 181, 1-(3-(4-(4-(1-(pentan-3-yl)-1H-pyrazol-4-yl)pyrazolo[1,5-a]pyrazin-6-yl)-1H-pyrazol-1-yl)azetidin-1-yl)-2-(pyrrolidin-1-yl)ethanone] |
| 1000 to 10000 nM | 10 to 100 nM | 10 to 100 nM | 100 to 1000 nM | – | CCC(CC)n1cc(-c2nc(-c3cnn(CCN4CC[C@@H](OC)C4)c3)cn3nccc23)cn1 [Example 136, (R)-6-(1-(2-(3-methoxypyrrolidin-1-yl)ethyl)-1H-pyrazol-4-yl)-4-(1-(pentan-3-yl)-1H-pyrazol-4-yl)pyrazolo[1,5-a]pyrazine] |
| 1000 to 10000 nM | 10 to 100 nM | 10 to 100 nM | 100 to 1000 nM | – | CCC(CC)n1cc(-c2nc(-c3cnn([C@@H](C)[C@@H](O)CO)c3)cn3nccc23)cn1 (single isomer, unassigned) [Example 91] |
| 1000 to 10000 nM | 1000 to 10000 nM | 1000 to 10000 nM | 1000 to 10000 nM | – | CCC(CO)n1cc(-c2nc(-c3cnn(C)c3)cn3nccc23)cn1 (stereo not drawn) [Example 45, 2-(4-(6-(1-methyl-1H-pyrazol-4-yl)pyrazolo[1,5-a]pyrazin-4-yl)-1H-pyrazol-1-yl)butan-1-ol] |
| 1000 to 10000 nM | 10 to 100 nM | 10 to 100 nM | 1000 to 10000 nM | – | CCC(CC)n1cc(-c2nc(-c3cnn(CCN4CC[C@@H](O)C4)c3)cn3nccc23)cn1 [Example 140, (R)-1-(2-(4-(4-(1-(pentan-3-yl)-1H-pyrazol-4-yl)pyrazolo[1,5-a]pyrazin-6-yl)-1H-pyrazol-1-yl)ethyl)pyrrolidin-3-ol] |
| 1000 to 10000 nM | 10 to 100 nM | 10 to 100 nM | 100 to 1000 nM | – | CCC(CC)n1cc(-c2nc(-c3cnn(C4CN(C(=O)N(C)C)C4)c3)cn3nccc23)cn1 [Example 40, N,N-dimethyl-3-(4-(4-(1-(pentan-3-yl)-1H-pyrazol-4-yl)pyrazolo[1,5-a]pyrazin-6-yl)-1H-pyrazol-1-yl)azetidine-1-carboxamide] |
| 1000 to 10000 nM | 10 to 100 nM | 10 to 100 nM | – | 1000 to 10000 nM | C[C@@H]1CCCC[C@H]1n1cc(-c2nc(-c3cnn(C[C@H](O)CO)c3)cn3nccc23)cn1 (single isomer, unassigned) [Example 152] |
| 1000 to 10000 nM | 10 to 100 nM | 10 to 100 nM | 100 to 1000 nM | – | CCC(CC)n1cc(-c2nc(-c3cnn(C(CO)CO)c3)cn3nccc23)cn1 [Example 81, 2-(4-(4-(1-(pentan-3-yl)-1H-pyrazol-4-yl)pyrazolo[1,5-a]pyrazin-6-yl)-1H-pyrazol-1-yl)propane-1,3-diol] |
| 1000 to 10000 nM | 10 to 100 nM | 10 to 100 nM | 100 to 1000 nM | – | CCC(CC)n1cc(-c2nc(-c3cnn(C[C@H](C)O)c3)cn3nccc23)cn1 [Example 110, (S)-1-(4-(4-(1-(pentan-3-yl)-1H-pyrazol-4-yl)pyrazolo[1,5-a]pyrazin-6-yl)-1H-pyrazol-1-yl)propan-2-ol] |
| 1000 to 10000 nM | 10 to 100 nM | 10 to 100 nM | 100 to 1000 nM | – | CCC(CC)n1cc(-c2nc(-c3cnn(C[C@H](O)CC)c3)cn3nccc23)cn1 [Example 115, (R)-1-(4-(4-(1-(pentan-3-yl)-1H-pyrazol-4-yl)pyrazolo[1,5-a]pyrazin-6-yl)-1H-pyrazol-1-yl)butan-2-ol] |
| 1000 to 10000 nM | 100 to 1000 nM | 100 to 1000 nM | – | 1000 to 10000 nM | CC[C@H](C1CCC1)n1cc(-c2nc(-c3cnn(C[C@@H](O)CO)c3)cn3nccc23)cn1 (single isomer, unassigned) [Example 196] |
| 1000 to 10000 nM | 10 to 100 nM | 10 to 100 nM | 100 to 1000 nM | – | CCC(CC)n1cc(-c2nc(-c3cnn([C@H](C)[C@@H](O)CO)c3)cn3nccc23)cn1 (single isomer, unassigned) [Example 92] |
| 1000 to 10000 nM | 100 to 1000 nM | 10 to 100 nM | 1000 to 10000 nM | – | CCC(CC)n1cc(-c2nc(-c3cnn(CC(O)C(C)C)c3)cn3nccc23)cn1 (stereo not drawn) [Example 113, 3-methyl-1-(4-(4-(1-(pentan-3-yl)-1H-pyrazol-4-yl)pyrazolo[1,5-a]pyrazin-6-yl)-1H-pyrazol-1-yl)butan-2-ol] |
| 1000 to 10000 nM | 100 to 1000 nM | 10 to 100 nM | – | 1000 to 10000 nM | CCC[C@@H](C)n1cc(-c2nc(-c3cnn(C[C@H](O)CO)c3)cn3nccc23)cn1 [Example 74, (S)-3-(4-(4-(1-((R)-pentan-2-yl)-1H-pyrazol-4-yl)pyrazolo[1,5-a]pyrazin-6-yl)-1H-pyrazol-1-yl)propane-1,2-diol] |
| 1000 to 10000 nM | 10 to 100 nM | 10 to 100 nM | 100 to 1000 nM | – | CCC(CC)n1cc(-c2nc(-c3cnn(C[C@@H](O)CC)c3)cn3nccc23)cn1 [Example 114, (S)-1-(4-(4-(1-(pentan-3-yl)-1H-pyrazol-4-yl)pyrazolo[1,5-a]pyrazin-6-yl)-1H-pyrazol-1-yl)butan-2-ol] |
| 1000 to 10000 nM | 100 to 1000 nM | 100 to 1000 nM | 1000 to 10000 nM | – | CC(C)C[C@@H](C)n1cc(-c2nc(-c3cnn(C(CO)CO)c3)cn3nccc23)cn1 [Example 88, (R)-2-(4-(4-(1-(4-methylpentan-2-yl)-1H-pyrazol-4-yl)pyrazolo[1,5-a]pyrazin-6-yl)-1H-pyrazol-1-yl)propane-1,3-diol] |
| 1000 to 10000 nM | 10 to 100 nM | 10 to 100 nM | 100 to 1000 nM | – | CCC(CC)n1cc(-c2nc(-c3cnn(C[C@H]4C[C@@H](O)C4)c3)cn3nccc23)cn1 [Example 120, (1s,3s)-3-((4-(4-(1-(pentan-3-yl)-1H-pyrazol-4-yl)pyrazolo[1,5-a]pyrazin-6-yl)-1H-pyrazol-1-yl)methyl)cyclobutanol] |
| 1000 to 10000 nM | 10 to 100 nM | 10 to 100 nM | 100 to 1000 nM | – | CCC(CC)n1cc(-c2nc(-c3cnn(C[C@H](O)COC)c3)cn3nccc23)cn1 [Example 108, (S)-1-methoxy-3-(4-(4-(1-(pentan-3-yl)-1H-pyrazol-4-yl)pyrazolo[1,5-a]pyrazin-6-yl)-1H-pyrazol-1-yl)propan-2-ol] |
| 1000 to 10000 nM | 1000 to 10000 nM | 100 to 1000 nM | 1000 to 10000 nM | – | CCC(CC)n1cc(-c2nc(-c3cnn(C[C@@H](C)O)c3)cn3nccc23)cn1 [Example 109, (R)-1-(4-(4-(1-(pentan-3-yl)-1H-pyrazol-4-yl)pyrazolo[1,5-a]pyrazin-6-yl)-1H-pyrazol-1-yl)propan-2-ol] |
| 1000 to 10000 nM | 100 to 1000 nM | 100 to 1000 nM | 1000 to 10000 nM | – | CC(C)C[C@H](C)n1cc(-c2nc(-c3cnn(C(CO)CO)c3)cn3nccc23)cn1 [Example 87, (S)-2-(4-(4-(1-(4-methylpentan-2-yl)-1H-pyrazol-4-yl)pyrazolo[1,5-a]pyrazin-6-yl)-1H-pyrazol-1-yl)propane-1,3-diol] |
| 1000 to 10000 nM | 10 to 100 nM | 10 to 100 nM | 100 to 1000 nM | – | CCC(CC)n1cc(-c2nc(-c3cnn([C@H]4C[C@H](CO)C4)c3)cn3nccc23)cn1 [Example 165, (trans-3-(4-(4-(1-(pentan-3-yl)-1H-pyrazol-4-yl)pyrazolo[1,5-a]pyrazin-6-yl)-1H-pyrazol-1-yl)cyclobutyl)methanol] |

| Compound | IC50 (JAK3) | IC50 (JAK2) | IC50 (Human Tyk2 kinase domain) | IC50 (JAK1) | IC50 (JAK1; [1]) |
| --- | --- | --- | --- | --- | --- |
| CC[C@H](C)n1cc(-c2nc(-c3cnn(C[C@@H](O)CO)c3)cn3nccc23)cn1 [Example 68, (R)-3-(4-(4-(1-((S)-sec-butyl)-1H-pyrazol-4-yl)pyrazolo[1,5-a]pyrazin-6-yl)-1H-pyrazol-1-yl)propane-1,2-diol] | 1000 to 10000 nM | 10 to 100 nM | 10 to 100 nM | – | 100 to 1000 nM |
| CC[C@@H](C)n1cc(-c2nc(-c3cnn(C[C@@H](O)CO)c3)cn3nccc23)cn1 [Example 69, (R)-3-(4-(4-(1-((R)-sec-butyl)-1H-pyrazol-4-yl)pyrazolo[1,5-a]pyrazin-6-yl)-1H-pyrazol-1-yl)propane-1,2-diol] | 1000 to 10000 nM | 100 to 1000 nM | 100 to 1000 nM | – | 1000 to 10000 nM |
